# Source: patent US20240148821A1, “PHARMACEUTICAL USE OF CYCLIC PEPTIDE COMPOUND” (CHUGAI SEIYAKU KABUSHIKI KAISHA, priority 2021, published 2024)
# Numbered stars: 1 amine (or outer) side, 2 acyl side, 3 side chain; on linkers, the order of the positions; unused ones are H or OH. Bridge positions count the residues as written; N and C are the ends. Square brackets hold non-standard residues; d marks the D form. Peptide text beside a SMILES is read from it. * marks the point of attachment. hPhe(3,5-F2-4-CF3) = N[C@@H](CCc1cc(F)c(C(F)(F)F)c(F)c1)C(=O)O; hPhe(3-Cl-4-CF3) = N[C@@H](CCc1ccc(C(F)(F)F)c(Cl)c1)C(=O)O; hPhe(3-F,4-CF3) = N[C@@H](CCc1ccc(C(F)(F)F)c(F)c1)C(=O)O; 3Oxa8azabicyclo(3.2.1)octane = C1CC2COCC1N2*; NMePhe(4-Cl) = CN[C@@H](Cc1ccc(Cl)cc1)C(=O)O; NMePhe(4-Me) = CN[C@@H](Cc1ccc(C)cc1)C(=O)O; NMedβ3hAla = C[C@H](CC(=O)[*:2])N(C)[*:1]; NMeGly(cPent) = CN[C@H](C(=O)O)C1CCCC1; NMe3Pal = CN[C@@H](Cc1cccnc1)C(=O)O; NMeCha = CN[C@@H](CC1CCCCC1)C(=O)O; NMehLeu = CN[C@@H](CCC(C)C)C(=O)O; NMeAhp(2) = CCCCC[C@H](NC)C(=O)O; NMeChg = CN[C@H](C(=O)O)C1CCCCC1; NMeF = CN[C@@H](Cc1ccccc1)C(=O)O; NMeI = CC[C@H](C)[C@H](NC)C(=O)O; N(CH2CH2)2CF2 = FC1(F)CCN(*)CC1; NMeD = CN[C@@H](CC(=O)O)C(=O)O; dNMeD = CN[C@H](CC(=O)O)C(=O)O; NMeL = CN[C@@H](CC(C)C)C(=O)O; NEtAla = CCN[C@@H](C)C(=O)O; NMeV = CN[C@H](C(=O)O)C(C)C; d(β3hA) = C[C@@H](N)CC(=O)O; Azetidin(1-yl) = C1CN(*)C1; NMeA = CN[C@@H](C)C(=O)O; NMeAib = CNC(C)(C)C(=O)O; Piperidide = C1CCN(*)CC1; dNMeA = CN[C@H](C)C(=O)O; Ac5c = NC1(C(=O)O)CCCC1; Aze = O=C(O)[C@@H]1CCN1; Sar = CNCC(=O)O
# Tests used:
# [1] = molecular target: protein-protein interaction between Kras and SOS1 (biotin-tagged human Kras loaded with GDP, His-tagged human SOS1) (Homo sapiens (Human), UniProt P01116, G12D); test: Protein-protein interaction inhibition between Kras and SOS1 (KrasG12D-SOS PPI) using AlphaScreen; type: biochemical; conditions: AlphaScreen; biotin-tagged human Kras loaded with GDP, His-tagged human SOS1; read-out: KRAS G12D-SOS PPI IC50;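 further: kras produced in E. coli, Ni-coupled donor beads and streptavidin acceptor beads, excitation 680 nm with emission detected at 520–620 nm via singlet oxygen transfer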
# [2] = tested on: Human pancreatic cancer cell line AsPC-1 (G12D mutation Kras); test: AsPC-1 cell growth inhibition (AsPC-1 CGI); type: cell-based; conditions: read-out: AsPC-1 cell growth inhibition, 50% growth inhibitory concentration (IC50 value); 96 hours, CellTiter-Glo, values classified in ranges
# Method: Test compounds were serially dilated with dimethyl sulfoxide, and 200 nL was then dispensed to a U-bottom 96-well plate using Labcyte Echo. […] The cell suspension was dispensed to a. plate containing a test compound at 100 μL per well and incubated at 37° C. in a 5% carbon dioxide gas incubator. 96 hours later, 80 μL of CellTiter-Glo (Promega) was added to each well and fluorescence was measured.
Structure (SMILES),IC50 [1],IC50 [2]
CC[C@H](C)[C@@H]1NC(=O)[C@H](CC(C)C)N(C)C(=O)C[C@@H](C(=O)N2C3CCC2COC3)N(C)C(=O)[C@H](C2CCCC2)N(C)C(=O)C2(CCCC2)NC(=O)[C@@H]2CCCN2C(=O)[C@H](CCc2ccc(C(F)(F)F)c(Cl)c2)NC(=O)CN(C)C(=O)[C@H](CC2CCCCC2)N(C)C(=O)[C@@H]2CCN2C(=O)[C@H](C)N(C)C1=O [Compound 973] ([NMeL]I[NMeA][Aze][NMeCha][Sar][hPhe(3-Cl-4-CF3)]P[Ac5c][NMeGly(cPent)][NMeD]-{3Oxa8azabicyclo(3.2.1)octane}; lactam N-11),0.0028 µM,≤ 0.02 µM
"CC[C@H](C)[C@@H]1NC(=O)[C@H](CC(C)C)N(C)C(=O)C[C@@H](C(=O)N(C)C)N(C)C(=O)[C@H]([C@@H](C)CC)N(C)C(=O)C2(CCCC2)NC(=O)[C@@H]2CCCN2C(=O)[C@H](CCc2ccc(C(F)(F)F)c(F)c2)NC(=O)CN(C)C(=O)[C@H](CC2CCCCC2)N(C)C(=O)[C@@H]2CCN2C(=O)[C@H](C)N(C)C1=O [Compound 999] ([NMeL]I[NMeA][Aze][NMeCha][Sar][hPhe(3-F,4-CF3)]P[Ac5c][NMeI][NMeD]-NMe2; lactam N-11)",0.0017 µM,≤ 0.02 µM
CC[C@H](C)[C@@H]1NC(=O)[C@H](C)N(C)C(=O)C[C@@H](C)NC(=O)[C@H](C2CCCC2)N(C)C(=O)C2(CCCC2)NC(=O)[C@@H]2CCCN2C(=O)[C@H](CCc2ccc(C(F)(F)F)c(Cl)c2)NC(=O)CN(C)C(=O)[C@H](Cc2ccccc2)N(C)C(=O)[C@@H]2CCCN2C(=O)CN(C)C1=O [Compound 1004] (cyclo([Ac5c][NMeGly(cPent)][d(β3hA)][NMeA]I[Sar]P[NMeF][Sar][hPhe(3-Cl-4-CF3)]P)),0.013 µM,> 0.5 µM
CC[C@H](C)[C@@H]1NC(=O)[C@H](CC(C)C)N(C)C(=O)C[C@@H](C(=O)N(C)C)N(C)C(=O)[C@H](C2CCCC2)N(C)C(=O)[C@H](C(C)C)NC(=O)[C@@H]2CCCN2C(=O)[C@H](CCc2ccc(C(F)(F)F)c(Cl)c2)NC(=O)CN(C)C(=O)[C@H](CC2CCCCC2)N(C)C(=O)[C@@H]2CCN2C(=O)[C@H](C)N(C)C1=O [Compound 1010] ([NMeL]I[NMeA][Aze][NMeCha][Sar][hPhe(3-Cl-4-CF3)]PV[NMeGly(cPent)][NMeD]-NMe2; lactam N-11),0.0043 µM,> 0.5 µM
CC[C@H](C)[C@@H]1NC(=O)[C@H](C)N(C)C(=O)C[C@@H](C)NC(=O)[C@H](C2CCCC2)N(C)C(=O)C2(CCCC2)NC(=O)[C@@H]2CCCN2C(=O)[C@H](CCc2ccc(C(F)(F)F)c(Cl)c2)NC(=O)[C@@H](C)N(C)C(=O)[C@H](Cc2cccnc2)N(C)C(=O)[C@@H]2CCN2C(=O)[C@H](C)N(C)C1=O [Compound 1011] (cyclo([Ac5c][NMeGly(cPent)][d(β3hA)][NMeA]I[NMeA][Aze][NMe3Pal][dNMeA][hPhe(3-Cl-4-CF3)]P)),0.038 µM,> 0.5 µM
"CC[C@H](C)[C@@H]1NC(=O)[C@H](CC(C)C)N(C)C(=O)C[C@@H](C(=O)N(C)C)N(C)C(=O)[C@H]([C@@H](C)CC)N(C)C(=O)C2(CCCC2)NC(=O)[C@@H]2CCCN2C(=O)[C@H](CCc2ccc(C(F)(F)F)c(F)c2)NC(=O)CN(C)C(=O)[C@H](Cc2ccc(C)cc2)N(C)C(=O)[C@@H]2CCN2C(=O)[C@H](C)N(C)C1=O [Compound 1017] ([NMeL]I[NMeA][Aze][NMePhe(4-Me)][Sar][hPhe(3-F,4-CF3)]P[Ac5c][NMeI][NMeD]-NMe2; lactam N-11)",0.00088 µM,≤ 0.02 µM
"CC[C@H](C)[C@@H]1NC(=O)[C@H](C)N(C)C(=O)C[C@@H](C(=O)N2CCCCC2)N(C)C(=O)[C@H](C(C)C)N(C)C(=O)C2(CCCC2)NC(=O)[C@@H]2CCCN2C(=O)[C@H](CCc2ccc(C(F)(F)F)c(F)c2)NC(=O)CN(C)C(=O)[C@H](CC2CCCCC2)N(C)C(=O)[C@@H]2CCN2C(=O)[C@H](C)N(C)C1=O [Compound 1024] ([NMeA]I[NMeA][Aze][NMeCha][Sar][hPhe(3-F,4-CF3)]P[Ac5c][NMeV][NMeD]-Piperidide; lactam N-11)",0.0019 µM,> 0.5 µM
CC[C@H](C)[C@@H]1NC(=O)[C@H](C)N(C)C(=O)C[C@@H](C(=O)N2CCCCC2)N(C)C(=O)[C@H](C(C)C)N(C)C(=O)C2(CCCC2)NC(=O)[C@@H](CC(=O)N2CCC(F)(F)CC2)N(C)C(=O)[C@H](CCc2ccc(C(F)(F)F)c(Cl)c2)NC(=O)CN(C)C(=O)[C@H](CC2CCCCC2)N(C)C(=O)CN(C)C(=O)CN(C)C1=O [Compound 1025] ([NMeA]I[Sar][Sar][NMeCha][Sar][hPhe(3-Cl-4-CF3)][dNMeD](N(CH2CH2)2CF2)[Ac5c][NMeV][NMeD]-Piperidide; lactam N-11),0.0043 µM,> 0.5 µM
CC[C@H](C)[C@@H]1NC(=O)[C@H](C)N(C)C(=O)C[C@@H](C(=O)N2CCCCC2)N(C)C(=O)[C@H](C(C)C)N(C)C(=O)C(C)(C)N(C)C(=O)[C@@H]2CCCN2C(=O)[C@H](CCc2ccc(C(F)(F)F)c(Cl)c2)NC(=O)CN(C)C(=O)[C@H](CC2CCCCC2)N(C)C(=O)[C@@H]2CCN2C(=O)[C@H](C)N(C)C1=O [Compound 1034] ([NMeA]I[NMeA][Aze][NMeCha][Sar][hPhe(3-Cl-4-CF3)]P[NMeAib][NMeV][NMeD]-Piperidide; lactam N-11),0.0017 µM,> 0.5 µM
CC[C@H](C)[C@@H]1NC(=O)[C@H](CCC(C)C)N(C)C(=O)C[C@@H](C(=O)N(C)C)N(C)C(=O)[C@H]([C@@H](C)CC)N(C)C(=O)C2(CCCC2)NC(=O)[C@@H]2CCCN2C(=O)[C@H](CCc2ccc(C(F)(F)F)c(Cl)c2)NC(=O)CN(C)C(=O)[C@H](Cc2ccc(C)cc2)N(C)C(=O)[C@@H]2CCN2C(=O)[C@H](C)N(C)C1=O [Compound 1042] ([NMehLeu]I[NMeA][Aze][NMePhe(4-Me)][Sar][hPhe(3-Cl-4-CF3)]P[Ac5c][NMeI][NMeD]-NMe2; lactam N-11),0.00072 µM,≤ 0.02 µM
CC[C@H](C)[C@@H]1NC(=O)[C@H](CC(C)C)N(C)C(=O)C[C@@H](C(=O)N2CCCCC2)N(C)C(=O)[C@H](C2CCCCC2)N(C)C(=O)C2(CCCC2)NC(=O)[C@H](C)N(CC)C(=O)[C@H](CCc2ccc(C(F)(F)F)c(Cl)c2)NC(=O)CN(C)C(=O)[C@H](CC2CCCCC2)N(C)C(=O)CN(C)C(=O)CN(C)C1=O [Compound 1045] ([NMeL]I[Sar][Sar][NMeCha][Sar][hPhe(3-Cl-4-CF3)][NEtAla][Ac5c][NMeChg][NMeD]-Piperidide; lactam N-11),0.0067 µM,> 0.5 µM
"CC[C@H](C)[C@@H]1NC(=O)[C@H](CC(C)C)N(C)C(=O)C[C@@H](C)N(C)C(=O)[C@H](CC(C)C)NC(=O)C(C)(C)N(C)C(=O)[C@H](C(C)C)NC(=O)[C@H](CCc2ccc(C(F)(F)F)c(F)c2)NC(=O)CN(C)C(=O)[C@H](Cc2ccc(Cl)cc2)N(C)C(=O)CN(C)C(=O)CN(C)C1=O [Compound 1054] (cyclo(I[Sar][Sar][NMePhe(4-Cl)][Sar][hPhe(3-F,4-CF3)]V[NMeAib]L[NMedβ3hAla][NMeL]))",0.12 µM,> 0.5 µM
CC[C@H](C)[C@@H]1NC(=O)[C@H](C)N(C)C(=O)C[C@@H](C)NC(=O)[C@H](C(C)C)N(C)C(=O)C2(CCCC2)NC(=O)[C@@H]2CCCN2C(=O)[C@H](CCc2ccc(C(F)(F)F)c(Cl)c2)NC(=O)CN(C)C(=O)[C@H](CC2CCCCC2)N(C)C(=O)[C@@H]2CCCN2C(=O)CN(C)C1=O [Compound 1056] (cyclo([Ac5c][NMeV][d(β3hA)][NMeA]I[Sar]P[NMeCha][Sar][hPhe(3-Cl-4-CF3)]P)),0.018 µM,> 0.5 µM
CCCCC[C@H]1C(=O)N[C@@H]([C@@H](C)CC)C(=O)N[C@@H](C)C(=O)N2CC[C@H]2C(=O)N(C)[C@@H](Cc2ccc(C)cc2)C(=O)N(C)CC(=O)N[C@@H](CCc2ccc(C(F)(F)F)c(Cl)c2)C(=O)N2CCC[C@H]2C(=O)NC2(CCCC2)C(=O)N(C)[C@@H](C2CCCC2)C(=O)N(C)[C@H](C(=O)N(C)C)CC(=O)N1C [Compound 1059] ([NMeAhp(2)]IA[Aze][NMePhe(4-Me)][Sar][hPhe(3-Cl-4-CF3)]P[Ac5c][NMeGly(cPent)][NMeD]-NMe2; lactam N-11),0.00064 µM,≤ 0.02 µM
"CC[C@H](C)[C@@H]1NC(=O)[C@H](CC(C)C)N(C)C(=O)C[C@@H](C(=O)N2CCC2)N(C)C(=O)[C@H](C2CCCC2)N(C)C(=O)C2(CCCC2)NC(=O)[C@@H]2CCCN2C(=O)[C@H](CCc2cc(F)c(C(F)(F)F)c(F)c2)NC(=O)CN(C)C(=O)[C@H](CC2CCCCC2)N(C)C(=O)[C@@H]2CCN2C(=O)[C@H](C)N(C)C1=O [Compound 1070] ([NMeL]I[NMeA][Aze][NMeCha][Sar][hPhe(3,5-F2-4-CF3)]P[Ac5c][NMeGly(cPent)][NMeD]-{Azetidin(1-yl)}; lactam N-11)",0.00091 µM,≤ 0.02 µM
CC[C@H](C)[C@@H]1NC(=O)[C@H](CC(C)C)N(C)C(=O)C[C@@H](C)N(C)C(=O)[C@H](CC(C)C)NC(=O)C(C)(C)N(C)C(=O)[C@H](CC(C)C)NC(=O)[C@H](CCc2ccc(C(F)(F)F)c(Cl)c2)NC(=O)CN(C)C(=O)[C@H](CC2CCCCC2)N(C)C(=O)CN(C)C(=O)CN(C)C1=O [Compound 1076] (cyclo(I[Sar][Sar][NMeCha][Sar][hPhe(3-Cl-4-CF3)]L[NMeAib]L[NMedβ3hAla][NMeL])),0.019 µM,> 0.5 µM
